Where a name gives a salt, the structure may show the parent alone. Read-outs that look alike come from different tables or passages of the source.
Key:
Vasopressin V2 Receptor = Vasopressin V2 Receptor (Rattus norvegicus, UniProt Q00788); assay: biochemical; type: binding, rat (Sprague-Dawley, female; kidney crude membrane); conditions: 1 h, read-out: Binding Rate of Vasopressin V2 Receptor
Vasopressin V1 Receptor = Vasopressin V1 Receptor (Rattus norvegicus, UniProt P30560); assay: biochemical; type: binding, rat (Sprague-Dawley, female; liver crude membrane); conditions: 1 h, read-out: Binding Rate of Vasopressin V1 Receptor
Vasopressin V1 Receptor, sequence (P30560 whole entry): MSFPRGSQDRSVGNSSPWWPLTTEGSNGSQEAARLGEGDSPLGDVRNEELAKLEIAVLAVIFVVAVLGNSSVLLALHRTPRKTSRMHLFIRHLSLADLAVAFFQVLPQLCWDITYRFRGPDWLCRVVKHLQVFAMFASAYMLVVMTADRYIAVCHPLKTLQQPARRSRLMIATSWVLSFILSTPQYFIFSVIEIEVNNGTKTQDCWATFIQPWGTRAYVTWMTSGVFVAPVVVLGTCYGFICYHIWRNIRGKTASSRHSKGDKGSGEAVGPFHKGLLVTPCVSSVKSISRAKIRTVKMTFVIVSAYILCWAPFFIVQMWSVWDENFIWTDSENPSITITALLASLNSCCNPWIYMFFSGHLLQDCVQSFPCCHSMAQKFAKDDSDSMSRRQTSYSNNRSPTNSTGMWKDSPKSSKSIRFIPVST
Method: The livers excised from Sprague-Dawley female rats were cut into small pieces, and were homogenized in 50 mM Tris-HCl, pH 7.4 hereunder referred to as "buffer"). The homogenate was centrifuged at 50000×g, at 4° C. for 20 minutes. The pellet was added the buffer in an amount of 10 times the volume of the pellet, the mixture was recentrifuged by the same method as described above to wash the residue. The buffer was further added to the resulting pellet so that the protein content thereof was adjusted to 10 mg/ml to thus give a crude membrane fraction of rat liver. The crude membrane fraction of rat liver was used in the following test. More specifically, 5000 μg of the crude liver membrane was incubated with [^3 H]-Arg-vasopressin V-1 antagonist ([^3 H) vasopressin V1 antagonist: 2 nM) and various concentration (3×10^-12 to 10^-6) of the test compounds in a 1000 μL of buffer containing 10 mM magnesium chloride, 10 mM potassium chloride and 0.1% bovine serum albumin at 25° C. for 60 minutes. Thereafter the incubation mixture was rapidly filtered by vacuum using a cell harvester. The filters were washed with buffer to remove free ligands and excess buffer, and to thus trap labeled ligand linked with the receptor on the filter paper. The filter paper was sufficiently dried and mixed with a liquid scintillator, and the amount of the [^3 H] vasopressin V1 antagonist bonded to the membrane was determined using a liquid scintillation counter. The inhibition rate at each concentration was calculated according to the following equation:
Inhibition Rate (%)=100-[(B-N)/(B0 -N)]×100
Wherein B represents the amount of the [^3 H] vasopressin V1 antagonist bonded to the membrane in the presence of known amounts of the compound to be tested and the [^3 CH] vasopressin V1 antagonist;
B0 represents the amount of the [^3 H] vasopressin V1 antagonist bonded to the membrane in the absence of the compound to be tested;
N represents the amount of the [^3 H] vasopressin V1 antagonist bonded to the membrane in the presence of an excess of vasopressin (10^-6 M).
The IC50 value (the concentration required to cause 50% inhibition of the specific binding of [^3 H]-V1 antagonist) was determined. […] On the other hand, for the compounds which were investigated only one concentration (10^-7 M), the inhibition rate at that concentration was defined to be the binding rate.

Normal Conscious Rat = assay: Aquaretic Effects in Normal Conscious Rat (urine volume); type: in vivo, rat (Sprague-Dawley, male)
Method: Aquaretic Effects in Normal Conscious Rat
Studies were performed with Sprague-Dawley male SPF rats (body weight: 240 to 320 g; 8-week-old). In this experiment, each group consisted of not less than 4 animals and rats were fasted over 16 to 20 hours. The animals were acclimatized in metabolic cages for one hour, then each compound to be tested was dissolved in 100% N,N-dimethylformamide or suspended in 5% gum arabic solution and administered to these animals intravenously (iv.) in a dose of 3 mg/kg or orally (p.o.) in a dose of 30 mg/kg. Immediately after the test compound or vehicle were orally administered, saline (25 ml/kg) was given orally. Spontaneous voided urines were collected for 4 hours after the administration of the compound and the amount of the urine were determined. In this case, the control group consisted of animals to which only 5% gum arabic was orally administered.
In addition, known compounds of Comparative Examples 2 and Comparative Examples 3 and 4 represented by the following formulas were used as control compounds.

[1] = 10^-7 M, inhibition rate at this concentration

Vasopressin V2 Receptor, sequence (Q00788 whole entry): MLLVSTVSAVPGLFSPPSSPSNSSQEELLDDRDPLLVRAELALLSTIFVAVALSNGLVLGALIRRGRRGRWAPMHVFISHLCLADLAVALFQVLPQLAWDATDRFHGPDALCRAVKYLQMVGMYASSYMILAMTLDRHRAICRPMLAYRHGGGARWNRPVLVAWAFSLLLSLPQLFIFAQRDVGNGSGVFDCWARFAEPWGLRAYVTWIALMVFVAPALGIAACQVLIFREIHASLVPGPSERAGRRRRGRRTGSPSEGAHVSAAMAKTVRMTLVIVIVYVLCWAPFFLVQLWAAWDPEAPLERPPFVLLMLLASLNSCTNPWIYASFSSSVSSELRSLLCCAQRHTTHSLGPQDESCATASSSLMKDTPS

inhibition at 0.1 µM (Vasopressin V2 Receptor; [1]) [%]	inhibition at 0.1 µM (Vasopressin V1 Receptor; [1]) [%]	Structure (SMILES)	inhibition at 0.1 µM (Vasopressin V2 Receptor) [%]	inhibition at 0.1 µM (Vasopressin V1 Receptor) [%]	Amount of Urine Volume (Normal Conscious Rat; 3 mg/kg, i.v.) [ml/kg/0-4 hr.]	Amount of Urine Volume (Normal Conscious Rat; 30 mg/kg, p.o.) [ml/kg/0-4 hr.]
100	4.7	Cc1ccc(-c2ccccc2C(=O)Nc2ccc(C(=O)N3C[C@@H]4CCCN4C(=S)c4ccccc43)cc2)cc1 [Example 38, (11aS)-10-[4-[[2-(4-Tolyl) Benzoyl]Amino]Benzoyl]-1,2,3,10,11, 11a-Hexahydro-5H-Pyrrolo[2,1-c][1,4]Benzodiazepin-5-Thione]	–	–	60.0	66.6
92.8	88.3	O=C(Nc1ccc(C(=O)N2CC[C@@H]3CCCN3c3ccccc32)cc1)c1ccccc1-c1ccccc1 [Example 49, (3aS)-6-[4-[(2-Phenylbenzoyl) Amino]Benzoyl]-2,3,3a,4,5,6-Hexahydro-1H-Pyrrolo[1,2-a][1,5]Benzodiazepine]	–	–	76.5	43.8
100	33.5	Cc1ccc(-c2ccccc2C(=O)Nc2ccc(C(=O)N3C[C@H]4C[C@H](N(C)C)CN4c4ccccc43)cc2)cc1 [Example 22, (2S, 3aR)-2-(N,N-Dimethylamino)-5-[4-[[2-(4-Tolyl) Benzoy]Amino]Benzoyl]-1,2,3,3a,4,5-Hexahydro-Pyrrolo[1,2-a]Quinoxaline Hydrochloride]	–	–	58.8	79.6
96.7	48.2	Cc1ccc(-c2ccccc2C(=O)Nc2ccc(C(=O)N3C[C@H]4CCCN4Cc4ccccc43)cc2)cc1 [Example 44, (11aR)-10-[4-[[2-(4-Tolyl) Benzoyl]Amino]Benzoyl]-1,2,3,10,11, 11-Hexahydro-5H-Pyrrolo[2,1-c][1,4]Benzodiazepine Hydrochloride]	–	–	73.0	92.8
100	4	Cc1ccc(-c2ccccc2C(=O)Nc2ccc(C(=O)N3C[C@@H]4CCCN4C(=O)c4ccccc43)cc2)cc1 [Example 26, (11aS)-10-[4-[[2-(4-Tolyl) Benzoyl]Amino]Benzoyl]-1,2,3,10,11,11a-Hexahydro-5H-Pyrrolo[2,1-c][1,4]Benzodiazepin-5-One]	–	–	72.3	88.3
100	95.7	O=C(Nc1ccc(C(=O)N2CC[C@H]3C[C@@H](O)CN3c3ccccc32)cc1)c1ccccc1-c1ccccc1 [Example 52, (2R,3aS)-2-Hydroxy-6-[4-[(2-Phenylbenzoyl) Amino]Benzoyl]-2,3,3a,4,5,6-Hexahydro-1H-Pyrrolo[1,2-a][1,5]Benzodiazepine]	–	–	60.6	36.6
92	6.6	O=C(Nc1ccc(C(=O)N2C[C@@H]3CCCN3Cc3ccccc32)cc1)c1ccccc1-c1ccccc1 [Example 41, (11aS)-10-[4-[(2-Phenylbenzoyl) Amino]Benzoyl]-1,2,3,10,11, 11a-Hexahydro-5H-Pyrrolo[12,1-c][1,4]Benzodiazepine Hydrochloride]	–	–	29.6	73.8
99.5	18.9	O=C(Nc1ccc(C(=O)N2C[C@@H]3C[C@H](O)CN3C(=O)c3ccccc32)cc1)c1ccccc1-c1ccccc1 [Example 29, (2S, 11aS)-2-Hydroxy-10-[4-[(2-Phenylbenzoyl) Amino]Benzoyl]-1,2,3,10,11,11a-Hexahydro-5H-Pyrrolo[2,1-c][1,4]Benzodiazepin-5-One]	–	–	50.4	14.0
100	16.5	Cc1ccc(-c2ccccc2C(=O)Nc2ccc(C(=O)N3C[C@H]4CC(=O)CN4c4ccccc43)cc2)cc1 [Example 24]	–	–	49.4	46.1

Continued, compound first:

Structure (SMILES)	inhibition at 0.1 µM (Vasopressin V2 Receptor; [1]) [%]	inhibition at 0.1 µM (Vasopressin V1 Receptor; [1]) [%]	inhibition at 0.1 µM (Vasopressin V2 Receptor) [%]	inhibition at 0.1 µM (Vasopressin V1 Receptor) [%]	Amount of Urine Volume (Normal Conscious Rat; 3 mg/kg, i.v.) [ml/kg/0-4 hr.]	Amount of Urine Volume (Normal Conscious Rat; 30 mg/kg, p.o.) [ml/kg/0-4 hr.]
Cl.O=C1C[C@@H]2CN(C(=O)c3ccc(NC(=O)c4ccccc4-c4ccccc4)cc3)c3ccccc3CN2C1 [Example 48, (11aR)-10-[4-[(2-Phenylbenzoyl) Amino]Benzoyl]-1,2,3,10,11, 11a-Hexahydro-5H-Pyrrolo[2,1-c][1,4]Benzodiazepin-2-One Hydrochloride]	–	–	96.8	42.3	78.9	14.8
CN(C)[C@H]1C[C@@H]2CN(C(=O)c3ccc(NC(=O)c4ccccc4-c4ccccc4)cc3)c3ccccc3N2C1 [Example 21, (2S, 3aR)-2-(N,N-Dimethylamino)-5-[4-[(2-Phenylbenzoyl) Amino]Benzoyl]-1,2,3,3a,4,5-Hexahydro-Pyrrolo[1,2-a]Quinoxaline]	100	19.5	–	–	47.6	81.4
CC(=O)O[C@H]1C[C@@H]2CN(C(=O)c3ccc(NC(=O)c4ccccc4-c4ccc(C)cc4)cc3)c3ccccc3N2C1 [Example 16, (2S, 3aR)-2-Acetoxy-5-[4-[[2-(4-Tolyl) Benzoyl]Amino]Benzoyl]-1,2,3,3a,4,5-Hexahydro-Pyrrolo[1,2-a]Quinoxaline]	100	68.2	–	–	71.0	72.0
Cl.O=C(Nc1ccc(C(=O)N2C[C@H]3CCCN3Cc3ccccc32)cc1)c1ccccc1-c1ccccc1 [Example 43, (11aR)-10-[4-[(2-Phenylbenzoyl) Amino]Benzoyl]-1,2,3,10,11, 11a-Hexahydro-5H-Pyrrolo[2,1-c][1,4]Benzodiazepine Hydrochloride]	–	–	100	61.6	77.5	121.6
O=C(Nc1ccc(C(=O)N2C[C@H]3CCCN3c3ccccc32)cc1)c1ccccc1-c1ccccc1 [Example 11, (3aR)-5-[4-[(2-Phenylbenzoyl) Amino]Benzoyl]-1,2,3,3a,4,5-Hexahydro-Pyrrolo[1,2-a]Quinoxaline]	100	34	–	–	56.5	69.6
Cc1ccc(-c2ccccc2C(=O)Nc2ccc(C(=O)N3C[C@@H]4C[C@H](O)CN4c4ccccc43)cc2)cc1 [Example 8, (2S, 3aS)-2-Hydroxy-5-[4-[[2-(4-Tolyl) Benzoyl]Amino]Benzoyl]-1,2,3,3a,4,5-Hexahydro-Pyrrolo[1,2-a]Quinoxahine]	100	16.3	–	–	–	–
CC(=O)O[C@H]1C[C@@H]2CCN(C(=O)c3ccc(NC(=O)c4ccccc4-c4ccccc4)cc3)c3ccccc3N2C1 [Example 53, (2S, 3aS)-2-Acetoxy-6-[4-[(2-Phenylbenzoyl) Amino]Benzo]-2,3,3a,4,5,6-Hexahydro-1H-Pyrrolo[1,2-a][1,5]Benzodiazepine]	97.9	63.8	–	–	–	–
Cc1ccc(-c2ccccc2C(=O)Nc2ccc(C(=O)N3C[C@H]4C[C@@H](O)CN4c4ccccc43)cc2)cc1 [Example 14, (2R,3aR)-2-Hydroxy-5-[4-[[2-(4-Tolyl) Benzoyl]Amino]Benzoyl]-1,2,3,3a-4,5-Hexahydro-Pyrrolo[1,2-a]Quinoxaline]	–	–	–	–	60.6	90.3
